Converted amounts (≈) assume the structure as drawn.
Legend:
[1] = critical micelle content; no method given; cited from earlier work
Trichophyton rubrum = assay: Antifungal susceptibility testing (NCCLS M27-A), Trichophyton rubrum cultures in vitro; type: cell-based; details: for MIC80 / MIC100: 7 days at 30° C.; for MIC100: lowest concentration that inhibited 100% of fungal growth; for MFC: lowest concentration that killed at least 97% of the original inoculum; for fungicidal effect: result in words
Protocol: Suspensions were then treated with various polyoxyethylene alkyl ethers at a range of concentrations, and incubated for 7 days at 30° C. […] Minimum fungicidal concentrations (MFCs) were determined as the lowest concentration of compound that killed at least 97% of the original inoculum, as compared with the verified inoculum count.

Candida Parapsilosis = assay: Additional fungal species susceptibility testing, Candida parapsilosis; type: cell-based
Protocol: (§1) A number of polyoxyethylene alkyl ethers were tested for fungicidal activity against Trichophyton rubrum cultures in vitro according to standard methods (see, Approved Standard M27-A, National Commitee for […] Laboratory Standards, 1997). Briefly, inocula from Trichophyton rubrum were harvested from agar cultures, suspended in 0.85% saline, and diluted to a verified final concentration of […] colony-forming units (CFU) per ml. Suspensions were then treated with various polyoxyethylene alkyl ethers at a range of concentrations, and incubated for 7 days at 30° C. Minimum inhibitory concentrations (MICs) were determined as the lowest concentration of compound that inhibited 100% of fungal growth, as compared with a polyoxyethylene alkyl ether-free control suspension. Minimum fungicidal concentrations (MFCs) were determined as the lowest concentration of compound that killed at least 97% of the original inoculum, as compared with the verified inoculum count. Trichophyton rubrum is the causative organism in 68-100% of patients in onychomycosis trials (Crawford et al. (2002) Archives Dermatol. 138:811-816). Trichophyton Mentagrophytes is the causative organism in most of the rest. Although yeast and other nondermatophytes can cause onychomycosis, the incidence is small. Additional fungal species were tested for susceptibility to treatment with Laureth-4 as described in Example 1.

Candida Albicans = assay: Additional fungal species susceptibility testing, Candida albicans; type: cell-based
Protocol: as §1

[2] = test system: Scopulariopsis brevicaulis; assay: Additional fungal species susceptibility testing, Scopulariopsis brevicaulis; type: cell-based
Protocol: as §1

Fusarium solani = assay: Additional fungal species susceptibility testing, Fusarium solani; type: cell-based
Protocol: as §1

[3] = test system: Trichophyton mentagrophytes; assay: Additional fungal species susceptibility testing, Trichophyton mentagrophytes; type: cell-based
Protocol: as §1

Aspergillus flavus = assay: Additional fungal species susceptibility testing, Aspergillus flavus; type: cell-based
Protocol: as §1

| Molecule | CMC [1] [mM] | MIC80 (Trichophyton rubrum) [µg/mL] | MIC100 (Trichophyton rubrum) [µg/mL] | MFC (Trichophyton rubrum) [µg/mL] | further results |
| --- | --- | --- | --- | --- | --- |
| Polyoxyethylenesorbitan monolaurate [Tween 20] | 0.059 | 125 | 500 | 1000 | – |
| Polyoxyethylenesorbitan monooleate [Tween 80] | 0.059 | 250 | 1000 | 1000 | – |
| Polyoxyethylene 2 cetyl ether [BRIJ 52] | – | 0.98 | 3.9 | 7.8 | – |
| CCCCCCCCO[C@@H]1O[C@H](CO)[C@@H](O)[C@H](O)[C@H]1O [n-octyl-β-D-glucopyranoside] | 20 to 25 | 31.25 (≈ 107 µM) | 1000 (≈ 3420 µM) | – | – |
| Polyoxyethylenesorbitan monopalmitate [Tween 60] | 0.059 | 250 | 500 | 1000 | – |
| Polyoxyethylene 4 lauryl ether [BRIJ 30] | – | 0.98 | 1.95 | 1.95 | MFC (Candida Parapsilosis): >5000 µg/mL; MIC80 (Candida Parapsilosis): 15.5 µg/mL; MIC100 (Candida Parapsilosis): >5000 µg/mL; MFC (Candida Albicans): >5000 µg/mL; MIC80 (Candida Albicans): >5000 µg/mL; MIC100 (Candida Albicans): >5000 µg/mL; MFC [2]: >5000 µg/mL; MIC80 [2]: 78 µg/mL; MIC100 [2]: >5000 µg/mL; MFC (Fusarium solani): >5000 µg/mL; MIC80 (Fusarium solani): 78 µg/mL; MIC100 (Fusarium solani): >5000 µg/mL; MFC [3]: 625 µg/mL; MIC80 [3]: 5 µg/mL; MIC100 [3]: 625 µg/mL; MFC (Aspergillus flavus): >5000 µg/mL; MIC80 (Aspergillus flavus): 39 µg/mL; MIC100 (Aspergillus flavus): >5000 µg/mL |
| Polyoxyethylene 20 cetyl/stearyl ether [BRIJ 68] | – | 1.95 | 3.9 | 15.6 | – |
| Polyoxyethylene 23 lauryl ether [BRIJ 35] | 0.09 | 0.49 | 0.98 | 1.95 | – |
| Polyoxyethylene 20 cetyl ether [BRIJ 58] | – | 0.49 | 0.98 | 1.95 | – |
| Polyoxyethylene 2 stearyl ether [BRIJ 72] | – | 0.98 | 0.98 | 3.9 | – |
| Polyethylene glycol tert-octylphenyl ether [Triton X-100] | 0.2 to 0.9 | 31.25 | 1000 | – | – |
| Polyoxyethylene 20 oleyl ether [BRIJ 98] | – | 250 | 500 | 1000 | fungicidal effect (Trichophyton rubrum): loss of the effect |
| Polyoxyethylene 20 stearyl ether [BRIJ 78] | – | 0.98 | 1.95 | 3.9 | – |
| Polyoxyethylene 2 oleyl ether [BRIJ 93] | – | 250 | 250 | 1000 | fungicidal effect (Trichophyton rubrum): loss of the effect |
| C[C@H](CCC(=O)NCCC[N+](C)(C)CCCS(=O)(=O)[O-])[C@H]1CC[C@H]2[C@@H]3[C@H](O)C[C@@H]4C[C@H](O)CC[C@]4(C)[C@H]3C[C@H](O)[C@]12C [CHAPS] | 6 to 10 | 500 (≈ 813 µM) | 1000 (≈ 1630 µM) | – | – |
| CCCCCCCCS[C@@H]1O[C@H](CO)[C@@H](O)[C@H](O)[C@H]1O [n-octyl-β-D-thioglucopyranoside] | 9 | 500 (≈ 1620 µM) | 1000 (≈ 3240 µM) | – | – |
